Data: patent publication US11596639B2, “Substituted indole Mcl-1 inhibitors” (Vanderbilt University, priority 2016, dated 2023)
Like-named read-outs stand apart in the source and are kept apart here.

How the values were obtained:
[1] = test system: H929 human cancer cell lines; assay: Cellular viability / proliferation (Cell TiterGlo, 72 h); format: cell-based
Method in brief: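 Plating is at 1,000 cells/well in 10% FBS medium; after 24 h, compound is added as a 2-fold series starting at 50 μM with under 1% DMSO.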

Mcl-1 = Mcl-1 (Homo sapiens (Human), UniProt Q07820); assay: TR-FRET binding assay, FITC-Bak peptide and MBP-tagged Mcl-1; details: read-out: Ki for Inhibition of Mcl-1 by TR-FRET assay
Procedure: Compounds are diluted in DMSO in a 16-point, semilog serial dilution scheme. […] The plate was mixed and incubated for 3 hours at room temperature. […] TR-FRET signal is plotted and IC50 and Ki values are calculated in the same manner as the fluorescence polarization anisotropy based competition assays.

[2] = Homo sapiens, NCI-H929, 72 h, read-out: GI50 on cellular proliferation of H929 human cancer cell lines, H929 cells, 72 h, Cell TiterGlo, 10% FBS

Chain of Mcl-1 (Q07820 172-327): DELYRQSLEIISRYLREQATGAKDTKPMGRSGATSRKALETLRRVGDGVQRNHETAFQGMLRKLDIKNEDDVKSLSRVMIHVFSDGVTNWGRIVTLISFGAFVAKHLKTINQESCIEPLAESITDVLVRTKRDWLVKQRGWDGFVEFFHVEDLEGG

SMILES	GI50 [1, 2]	Ki (Mcl-1)	GI50 ([1]; H929 cells, 72 h, Cell TiterGlo, 10% FBS, read-out: GI50 on cellular proliferation of H929 human cancer cell lines)
Cc1cc(OCCCc2c3n(c4c(-c5c(C)nn(C)c5C)c(Cl)ccc24)[C@H](C)CN(c2cn(CC(=O)N4CCOCC4)c4ccc(-c5ncn(C)n5)cc24)C3=O)cc(C)c1Cl [Example 525, (R)-7-Chloro-10-(3-(4-chloro-3,5-dimethylphenoxy)propyl)-4-methyl-2-(5-(1-methyl-1H-1,2,4-triazol-3-yl)-1-(2-morpholino-2-oxoethyl)-1H-indol-3-yl)-6-(1,3,5-trimethyl-1H-pyrazol-4-yl)-3,4-dihydropyrazino[1,2-a]indol-1(2H)-one]	0.33 µM	0.00041 µM	–
Cc1ccc(Cn2cc(C(=O)O)c3cccc(N4C[C@@H](C)n5c(c(CCCOc6cc(C)c(Cl)c(C)c6)c6ccc(Cl)c(-c7c(C)nn(C)c7C)c65)C4=O)c32)nc1 (single isomer, unassigned) [Example 501]	1.2 µM	0.00068 µM	–
Cc1cc(OCCCc2c3n(c4c(-c5c(C)nn(C)c5C)c(Cl)ccc24)[C@H](C)CN(c2cc(CCN4CCN(C)CC4)cc4cc(C(=O)O)n(C)c24)C3=O)cc(C)c1Cl [Example 725, (R)-7-(7-chloro-10-(3-(4-chloro-3,5-dimethylphenoxy)propyl)-4-methyl-1-oxo-6-(1,3,5-trimethyl-1H-pyrazol-4-yl)-3,4-dihydropyrazino[1,2-a]indol-2(1H)-yl)-1-methyl-5-(2-(4-methylpiperazin-1-yl)ethyl)-1H-indole-2-carboxylic acid]	< 0.2 µM	< 0.0002 µM	–
Cc1cc(OCCCc2c3n(c4c(-c5c(C)nn(C)c5C)c(Cl)ccc24)[C@H](C)CN(c2cc(CN4CCCC4)cc4c(C(=O)O)cn(C)c24)C3=O)cc(C)c1Cl [Example 550, (R)-7-(7-chloro-10-(3-(4-chloro-3,5-dimethylphenoxy)propyl)-4-methyl-t-oxo-6-(1,3,5-trimethyl-1H-pyrazol-4-yl)-3,4-dihydropyrazino[1,2-a]indol-2(1H)-yl)-1-methyl-5-(pyrrolidin-1-ylmethyl)-1H-indole-3-carboxylic acid]	–	0.00052 µM	1.2 µM
COCCn1cc(C(=O)O)c2c(OC)ccc(N3C[C@@H](C)n4c(c(CCCOc5cc(C)c(Cl)c(C)c5)c5ccc(Cl)c(-c6c(C)nn(C)c6C)c54)C3=O)c21 [Example 625, (R)-7-(7-chloro-10-(3-(4-chloro-3,5-dimethylphenoxy)propyl)-4-methyl-1-oxo-6-(1,3,5-trimethyl-1H-pyrazol-4-yl)-3,4-dihydropyrazino[1,2-a]indol-2(1H)-yl)-4-methoxy-1-(2-methoxyethyl)-1H-indole-3-carboxylic acid]	0.42 µM	0.00022 µM	–
Cc1cc(N2C[C@@H](C)n3c(c(CCCOc4cc(C)c(Cl)c(C)c4)c4ccc(Cl)c(-c5c(C)nn(C)c5C)c43)C2=O)c2c(c1)cc1n2CCOC1=O [Example 685, (R)-6-(7-chloro-10-(3-(4-chloro-3,5-dimethylphenoxy)propyl)-4-methyl-1-oxo-6-(1,3,5-trimethyl-1H-pyrazol-4-yl)-3,4-dihydropyrazino[1,2-a]indol-2(1H)-yl)-8-methyl-3,4-dihydro-1H-[1,4]oxazino[4,3-a]indol-1-one]	1.4 µM	0.0032 µM	–
Cc1cc(OCCCc2c3n(c4c(-c5c(C)nn(C)c5C)c(Cl)ccc24)[C@H](C)CN(c2cccc4cc(C(=O)O)n(Cc5cnn(C)n5)c24)C3=O)cc(C)c1Cl [Example 570, (R)-7-(7-chloro-10-(3-(4-chloro-3,5-dimethylphenoxy)propyl)-4-methyl-1-oxo-6-(1,3,5-trimethyl-1H-pyrazol-4-yl)-3,4-dihydropyrazino[1,2-a]indol-2(1H)-yl)-1-((2-methyl-2H-1,2,3-triazol-4-yl)methyl)-1H-indole-2-carboxylic acid]	0.56 µM	< 0.0002 µM	–
Cc1cc(N2C[C@@H](C)n3c(c(CCCOc4cc(C)c(Cl)c(C)c4)c4ccc(Cl)c(-c5c(C)nn(C)c5C)c43)C2=O)c2c(c1)cc(C(=O)O)n2CC(=O)N(C)C [Example 596, (R)-7-(7-chloro-10-(3-(4-chloro-3,5-dimethylphenoxy)propyl)-4-methyl-1-oxo-6-(1,3,5-trimethyl-1H-pyrazol-4-yl)-3,4-dihydropyrazino[1,2-a]indol-2(1H)-yl)-1-(2-(dimethylamino)-2-oxoethyl)-5-methyl-1H-indole-2-carboxylic acid]	1.3 µM	< 0.0002 µM	–
Cc1cc(OCCCc2c3n(c4c(-c5c(C)nn(C)c5C)c(Cl)ccc24)[C@H](C)CN(c2cc(COCCN(C)C)cc4cc(C(=O)O)n(C)c24)C3=O)cc(C)c1Cl [Example 614, (R)-7-(7-chloro-10-(3-(4-chloro-3,5-dimethylphenoxy)propyl)-4-methyl-1-oxo-6-(1,3,5-trimethyl-1H-pyrazol-4-yl)-3,4-dihydropyrazino[1,2-a]indol-2(1H)-yl)-5-((2-(dimethylamino)ethoxy)methyl)-1-methyl-1H-indole-2-carboxylic acid]	0.69 µM	< 0.0002 µM	–
Cc1cc(OCCCc2c3n(c4c(-c5c(C)nn(C)c5C)c(Cl)ccc24)[C@H](C)CN(c2cn(C)c4ncc(C(=O)O)cc24)C3=O)cc(C)c1Cl [Example 575, (R)-3-(7-chloro-10-(3-(4-chloro-3,5-dimethylphenoxy)propyl)-4-methyl-1-oxo-6-(1,3,5-trimethyl-1H-pyrazol-4-yl)-3,4-dihydropyrazino[1,2-a]indol-2(1H)-yl)-1-methyl-1H-pyrrolo[2,3-b]pyridine-5-carboxylic acid]	0.74 µM	< 0.0002 µM	–
Cc1cc(C)nc(Cn2c(C(=O)O)cc3cc(C)cc(N4C[C@@H](C)n5c(c(CCCOc6cc(C)c(Cl)c(C)c6)c6ccc(Cl)c(-c7c(C)nn(C)c7C)c65)C4=O)c32)c1 [Example 599, (R)-7-(7-chloro-10-(3-(4-chloro-3,5-dimethylphenoxy)propyl)-4-methyl-1-oxo-6-(1,3,5-trimethyl-1H-pyrazol-4-yl)-3,4-dihydropyrazino[1,2-a]indol-2(1H)-yl)-1-((4,6-dimethylpyridin-2-yl)methyl)-5-methyl-1H-indole-2-carboxylic acid]	< 0.2 µM	< 0.0002 µM	–
COCCn1c(C(=O)O)cc2cc(OC)cc(N3C[C@@H](C)n4c(c(CCCOc5cc(C)c(Cl)c(C)c5)c5ccc(Cl)c(-c6c(C)nn(C)c6C)c54)C3=O)c21 [Example 665, (R)-7-(7-chloro-10-(3-(4-chloro-3,5-dimethylphenoxy)propyl)-4-methyl-1-oxo-6-(1,3,5-trimethyl-1H-pyrazol-4-yl)-3,4-dihydropyrazino[1,2-a]indol-2(1H)-yl)-5-methoxy-1-(2-methoxyethyl)-1H-indole-2-carboxylic acid]	0.28 µM	< 0.0002 µM	–
Cc1cc(N2C[C@@H](C)n3c(c(CCCOc4cc(C)c(Cl)c(C)c4)c4ccc(Cl)c(-c5c(C)nn(C)c5C)c43)C2=O)c2c(c1)cc(C(=O)O)n2Cc1cc(N2CCNCC2)ccn1 [Example 553, (R)-7-(7-chloro-10-(3-(4-chloro-3,5-dimethylphenoxy)propyl)-4-methyl-1-oxo-6-(1,3,5-trimethyl-1H-pyrazol-4-yl)-3,4-dihydropyrazino[1,2-a]indol-2(1H)-yl)-5-methyl-1-((4-(piperazin-1-yl)pyridin-2-yl)methyl)-1H-indole-2-carboxylic acid]	2.8 µM	< 0.0002 µM	–
